# Data as given in PubChem BioAssay AID2060599 (Molecular Pharmacology Branch, DTP, NCI, 2025).
# Test system: 817829-284-R-J1-PDC complex spheroids, viability
# Assay: Anticancer human tumor 817829-284-R-J1-PDC patient-derived colon adenocarcinoma cell line growth inhibition [CLK]
# Details: for IC50: curve of first compound; for viability, T/C: stronger effect = lower value
# Summary of the method: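 Patient-derived tumor cells grown as complex spheroids with HUVEC endothelial cells and mesenchymal stem cells, treated with drug combinations. Concentrations descend in half-log steps from near clinical Cmax, or from 10 microM if Cmax unknown.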
# [1] = second compound 0.0316 µM, first compound 0.0316 µM
# [2] = second compound 0.0316 µM, first compound 0.1 µM
# [3] = second compound 0.0316 µM, first compound 0.316 µM
# [4] = second compound 0.0316 µM, first compound 1 µM
# [5] = second compound 0.0316 µM, first compound 3.16 µM
# [6] = second compound 0.0316 µM, first compound 10 µM
# [7] = second compound 0.1 µM, first compound 0.0316 µM
# [8] = second compound 0.1 µM, first compound 0.1 µM
# [9] = second compound 0.1 µM, first compound 0.316 µM
# [10] = second compound 0.1 µM, first compound 1 µM
# [11] = second compound 0.1 µM, first compound 3.16 µM
# [12] = second compound 0.1 µM, first compound 10 µM
# [13] = second compound 0.316 µM, first compound 0.0316 µM
# [14] = second compound 0.316 µM, first compound 0.1 µM
# [15] = second compound 0.316 µM, first compound 0.316 µM
# [16] = second compound 0.316 µM, first compound 1 µM
# [17] = second compound 0.316 µM, first compound 3.16 µM
# [18] = second compound 0.316 µM, first compound 10 µM
# [19] = second compound 1 µM, first compound 0.0316 µM
# [20] = second compound 1 µM, first compound 0.1 µM
# [21] = second compound 1 µM, first compound 0.316 µM
# [22] = second compound 1 µM, first compound 1 µM
# [23] = second compound 1 µM, first compound 3.16 µM
# [24] = second compound 1 µM, first compound 10 µM
# [25] = second compound 3.16 µM, first compound 0.0316 µM
# [26] = second compound 3.16 µM, first compound 0.1 µM
# [27] = second compound 3.16 µM, first compound 0.316 µM
# [28] = second compound 3.16 µM, first compound 1 µM
# [29] = second compound 3.16 µM, first compound 3.16 µM
# [30] = second compound 3.16 µM, first compound 10 µM
# [31] = second compound 10 µM, first compound 0.0316 µM
# [32] = second compound 10 µM, first compound 0.1 µM
# [33] = second compound 10 µM, first compound 0.316 µM
# [34] = second compound 10 µM, first compound 1 µM
# [35] = second compound 10 µM, first compound 3.16 µM
# [36] = second compound 10 µM, first compound 10 µM
# 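Note: spheroids exposed to the agents for seven days before readout.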
smiles,measurement,setting,value
COc1ccc([C@@H](O)c2cc(-c3ncnc4cc(N5CCOCC5)ccc34)c(F)cc2Cl)nn1 + CN1CCN(c2cc(C(=O)Nc3cc4cc(-c5cnn(C)c5)ccc4cn3)ccn2)CC1,IC50,second compound 0.0316 µM,429 nM
same,IC50,second compound 0.1 µM,< 31.6 nM
same,IC50,second compound 0.316 µM,< 31.6 nM
same,IC50,second compound 1 µM,< 31.6 nM
same,IC50,second compound 3.16 µM,< 31.6 nM
same,IC50,second compound 10 µM,< 31.6 nM
same,"viability, T/C",[1],79.8%
same,"viability, T/C",[2],69%
same,"viability, T/C",[3],59.6%
same,"viability, T/C",[4],29.3%
same,"viability, T/C",[5],19.4%
same,"viability, T/C",[6],10.3%
same,"viability, T/C",[7],15.4%
same,"viability, T/C",[8],17.1%
same,"viability, T/C",[9],14.9%
same,"viability, T/C",[10],13%
same,"viability, T/C",[11],11.8%
same,"viability, T/C",[12],6.42%
same,"viability, T/C",[13],1.6%
same,"viability, T/C",[14],2.02%
same,"viability, T/C",[15],2.05%
same,"viability, T/C",[16],1.33%
same,"viability, T/C",[17],1%
same,"viability, T/C",[18],0.54%
same,"viability, T/C",[19],0.08%
same,"viability, T/C",[20],0.13%
same,"viability, T/C",[21],0.1%
same,"viability, T/C",[22],0.06%
same,"viability, T/C",[23],0.1%
same,"viability, T/C",[24],0.07%
same,"viability, T/C",[25],0.14%
same,"viability, T/C",[26],0.14%
same,"viability, T/C",[27],0.19%
same,"viability, T/C",[28],0.11%
same,"viability, T/C",[29],0.13%
same,"viability, T/C",[30],0.16%
same,"viability, T/C",[31],0.09%
same,"viability, T/C",[32],0.06%
same,"viability, T/C",[33],0.13%
same,"viability, T/C",[34],0.08%
same,"viability, T/C",[35],0.15%
same,"viability, T/C",[36],0.12%
COc1cccc2c1C(=O)c1c(O)c3c(c(O)c1C2=O)CC(O)(C(=O)CO)CC3OC1CC(N)C(O)C(C)O1 (centres undefined) + CN1CCN(c2cc(C(=O)Nc3cc4cc(-c5cnn(C)c5)ccc4cn3)ccn2)CC1,IC50,second compound 0.0316 µM,< 31.6 nM
same,IC50,second compound 0.1 µM,< 31.6 nM
same,IC50,second compound 0.316 µM,< 31.6 nM
same,IC50,second compound 1 µM,< 31.6 nM
same,IC50,second compound 3.16 µM,< 31.6 nM
same,IC50,second compound 10 µM,< 31.6 nM
same,"viability, T/C",[1],19.4%
same,"viability, T/C",[2],15.6%
same,"viability, T/C",[3],3.99%
same,"viability, T/C",[4],0.16%
same,"viability, T/C",[5],0.37%
same,"viability, T/C",[6],1.02%
same,"viability, T/C",[7],18.2%
same,"viability, T/C",[8],13.4%
same,"viability, T/C",[9],2.32%
same,"viability, T/C",[10],0.22%
same,"viability, T/C",[11],0.51%
same,"viability, T/C",[12],0.96%
same,"viability, T/C",[13],1.68%
same,"viability, T/C",[14],0.69%
same,"viability, T/C",[15],0.24%
same,"viability, T/C",[16],0.33%
same,"viability, T/C",[17],0.63%
same,"viability, T/C",[18],0.97%
same,"viability, T/C",[19],0.12%
same,"viability, T/C",[20],0.29%
same,"viability, T/C",[21],0.26%
same,"viability, T/C",[22],0.59%
same,"viability, T/C",[23],0.53%
same,"viability, T/C",[24],0.72%
same,"viability, T/C",[25],0.14%
same,"viability, T/C",[26],0.16%
same,"viability, T/C",[27],0.24%
same,"viability, T/C",[28],0.38%
same,"viability, T/C",[29],0.38%
same,"viability, T/C",[30],0.06%
same,"viability, T/C",[31],0.04%
same,"viability, T/C",[32],0.07%
same,"viability, T/C",[33],0.11%
same,"viability, T/C",[34],0.06%
same,"viability, T/C",[35],0.1%
same,"viability, T/C",[36],0.08%
